# Results reported in the supplement of paper PMC10307832.
# Experiments:
# Assay in all cases: relative viability (nuclei count vs DMSO), 5 days (fraction); higher = more cells survive
# Tozasertib + Vorinostat = compound: Cc1cc(Nc2cc(N3CCN(C)CC3)nc(Sc3ccc(NC(=O)C4CC4)cc3)n2)n[nH]1 [Tozasertib] + O=C(CCCCCCC(=O)Nc1ccccc1)NO [Vorinostat] (partner 1 µM)
# Procedure, shortened: (§1)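 Dosing by pin tool came one day after lung cancer cell lines were seeded in 1536-well plates, using either one drug or a fixed anchor-drug dose plus five library-drug doses (not always all listed) in √10 steps. After 5 days, nuclei were counted on 4× images. Relative viability is treated-well nuclei count divided by vehicle-well nuclei count, and values are medians of duplicate plates.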
# Tozasertib + Crizotinib = compound: Cc1cc(Nc2cc(N3CCN(C)CC3)nc(Sc3ccc(NC(=O)C4CC4)cc3)n2)n[nH]1 [Tozasertib] + C[C@@H](Oc1cc(-c2cnn(C3CCNCC3)c2)cnc1N)c1c(Cl)ccc(F)c1Cl [Crizotinib] (partner 1 µM)
# Procedure, shortened: as §1
# Tozasertib + Palbociclib = compound: Cc1cc(Nc2cc(N3CCN(C)CC3)nc(Sc3ccc(NC(=O)C4CC4)cc3)n2)n[nH]1 [Tozasertib] + CC(=O)c1c(C)c2cnc(Nc3ccc(N4CCNCC4)cn3)nc2n(C2CCCC2)c1=O [Palbociclib] (partner 0.5 µM)
# Procedure, shortened: as §1
# Tozasertib + Decitabine = compound: Cc1cc(Nc2cc(N3CCN(C)CC3)nc(Sc3ccc(NC(=O)C4CC4)cc3)n2)n[nH]1 [Tozasertib] + Nc1ncn([C@H]2C[C@H](O)[C@@H](CO)O2)c(=O)n1 [Decitabine] (partner 2 µM)
# Procedure, shortened: as §1
# Tozasertib + Pemetrexed = compound: Cc1cc(Nc2cc(N3CCN(C)CC3)nc(Sc3ccc(NC(=O)C4CC4)cc3)n2)n[nH]1 [Tozasertib] + Nc1nc2[nH]cc(CCc3ccc(C(=O)N[C@@H](CCC(=O)O)C(=O)O)cc3)c2c(=O)[nH]1 [Pemetrexed] (partner 0.2 µM)
# Procedure, shortened: as §1
Cell Line,relative viability (Tozasertib + Vorinostat; first compound 0.004 µM),relative viability (Tozasertib + Vorinostat; first compound 0.01265 µM),relative viability (Tozasertib + Vorinostat; first compound 0.04 µM),relative viability (Tozasertib + Vorinostat; first compound 0.1265 µM),relative viability (Tozasertib + Crizotinib; first compound 0.004 µM),relative viability (Tozasertib + Crizotinib; first compound 0.01265 µM),relative viability (Tozasertib + Crizotinib; first compound 0.1265 µM),relative viability (Tozasertib + Palbociclib; first compound 0.004 µM),relative viability (Tozasertib + Palbociclib; first compound 0.01265 µM),relative viability (Tozasertib + Palbociclib; first compound 0.04 µM),relative viability (Tozasertib + Palbociclib; first compound 0.1265 µM),relative viability (Tozasertib + Decitabine; first compound 0.004 µM),relative viability (Tozasertib + Decitabine; first compound 0.01265 µM),relative viability (Tozasertib + Decitabine; first compound 0.1265 µM),relative viability (Tozasertib + Pemetrexed; first compound 0.004 µM),relative viability (Tozasertib + Pemetrexed; first compound 0.01265 µM),relative viability (Tozasertib + Pemetrexed; first compound 0.04 µM),relative viability (Tozasertib + Pemetrexed; first compound 0.1265 µM),relative viability (Tozasertib + Crizotinib; first compound 0.04 µM),relative viability (Tozasertib + Decitabine; first compound 0.04 µM)
SK-LU-1,0.893,0.788,0.82,0.34,0.932,0.977,0.889,0.428,0.414,0.476,0.469,0.653,0.678,0.649,1.05,0.961,1.09,0.964,–,–
A-427,0.858,0.817,0.804,0.489,0.882,0.985,0.469,0.55,0.487,0.517,0.423,0.563,0.528,0.426,1,–,0.973,0.75,0.788,0.627
NCI-H2087,0.477,0.537,0.544,0.382,0.837,0.865,0.658,0.248,0.204,0.231,0.128,0.244,0.257,0.143,0.72,0.698,0.671,0.688,0.804,0.306
HARA,0.674,0.427,0.507,0.419,–,0.984,0.14,0.333,0.248,0.262,0.207,0.495,0.486,0.203,0.24,0.27,0.274,0.203,0.776,0.572
NCI-H1734,0.711,0.741,0.649,0.245,0.703,–,0.258,0.361,0.308,0.364,0.306,0.501,0.51,0.401,0.424,0.351,0.453,0.436,0.67,0.561
NCI-H2170,0.764,0.887,0.69,0.427,1.15,1.19,0.736,0.402,0.382,0.391,0.337,0.487,0.446,0.425,0.289,0.241,0.293,0.271,1.02,0.474
SK-MES-1,1,1.1,1.19,0.525,1.04,0.929,0.901,0.317,0.32,0.364,0.38,0.319,0.376,0.316,0.907,0.892,1.02,0.769,0.94,0.434
BEN,0.551,–,0.59,0.398,0.91,0.921,0.727,0.455,0.475,0.481,0.432,0.739,0.688,0.501,0.847,0.72,0.923,0.487,0.907,0.755
HCC-78,0.445,0.386,0.45,0.373,0.333,0.324,0.288,0.404,0.466,0.451,0.484,0.746,0.598,0.595,0.938,0.901,0.919,0.881,0.356,0.763
EKVX,0.665,0.543,0.637,0.613,0.766,–,0.802,–,0.367,0.418,0.412,0.265,0.345,0.316,0.371,0.351,0.382,0.351,0.932,0.354
NCI-H2009,0.772,0.696,0.735,0.578,1.06,1.06,0.847,0.254,0.201,0.247,0.164,0.401,0.352,0.359,1,1.03,0.985,0.986,0.988,0.416
NCI-H520,0.814,0.747,0.575,0.224,1.31,0.742,0.355,0.231,0.228,0.231,0.173,0.533,0.449,0.296,0.743,0.789,0.633,0.413,0.484,0.467
PC-14,–,0.741,0.879,0.121,0.896,0.914,0.884,–,0.576,0.526,0.474,–,0.21,0.128,–,0.145,0.143,0.125,1.02,0.184
EMC-BAC-2,0.438,0.233,0.242,0.15,0.803,0.704,0.23,0.542,0.501,0.514,0.433,0.977,0.86,0.58,0.464,0.407,0.467,0.428,0.461,0.918
HCC-827,0.87,0.835,0.89,0.584,1.02,0.82,0.719,0.511,0.516,0.603,0.493,0.207,0.283,0.264,0.254,0.239,0.293,0.262,0.927,0.305
NCI-H1437,0.851,0.792,0.769,0.481,0.929,0.839,0.922,0.327,0.267,0.316,0.19,0.614,0.49,0.359,0.302,0.292,0.328,0.296,0.721,0.584
